These results are taken from patent US20130259884A1, “PEPTIDES” ([…] SL, priority 2010, published 2013).

Where a SMILES comes first, the peptide text is derived from it. Some results are limits rather than exact numbers.

The solubility is the dissolved amount per volume that the medium holds.

The data set can be described thus: Water solubility of peptides when preparing stock solutions. Type of data set: physicochemical. The conditions noted are these: stock solution in sterile distilled water or 100% DMSO; read-out: solubility of peptide (water soluble or water insoluble, dissolved in DMSO). How it is done:
For challenge, peptides were administered as follows: • Individual peptides (soluble). Individual water soluble peptides were dissolved as 10, 5 or 2.5 mg/ml stock solutions in sterile distilled water. Before use, each peptide was diluted in water to 2 mg/ml and 10 μl of this 2 mg/ml mix was added to 990 μl of media. Then 100 μl of this peptide/media mix was added to 100 μl of media containing 350,000 PBMC in an ELISPOT anti-IL-4 coated cell culture plate well for a final peptide concentration of 10 μg/ml. Identically diluted media only was added to the cells and used for the no peptide media control wells (media only). • Individual peptides (DMSO). Individual water insoluble peptides were dissolved in 100% DMSO to a stock concentration of 50 mg/ml. Before use each peptide was diluted in water to 2 mg/ml and then 10 μl of the 2 mg/ml mix was added to 990 μl of cell-culture media. Then 100 μl of this peptide/media mix was added to 100 μl of media containing 350,000 PBMC in an ELISPOT anti-IL-4 coated cell culture plate well for a final peptide concentration of 10 μg/ml. Identically diluted media only was added to the cells and used for the no peptide media control wells (media only). • A combination preparation containing Alt a 1 soluble peptides (33.2, 34.3, 35.4, 35.5, 37.3.1, 37.4.1, L6-5.01, L10-1.01, L10-2.01, L10-3), called Alt a 1 Sol. Each peptide was diluted from water stock to 2 mg/ml in sterile distilled water. Then 10 μl of each peptide required for the combined preparation was mixed and brought up to 1 ml in media. Then 100 μl of this peptide/media mix was added to 100 μl of media containing 350,000 PBMC in an ELISPOT anti-IL-4 coated cell culture plate well for a final concentration of each peptide of 10 μg/ml. Identically diluted media only was used for the no peptide control wells (media only). • A combination preparation containing Alt a 1 DMSO peptides (32.2.1, 38.2.1, 35.2, 35.3, L6-2, L6-3, L6-4, 38.3, 37.2), called Alt a 1 DMSO. Each peptide was diluted from DMSO stock to 2 mg/ml in sterile distilled water. Then 10 μl of each peptide required for the combined preparation was mixed and brought up to 1 ml in media. Then 100 μl of this peptide/media mix is added to 100 μl of media containing 350,000 PBMC in an ELISPOT anti-IL-4 coated cell culture plate well for a final concentration of each peptide of 10 μg/ml. Identically diluted media only was used for the no peptide control wells (media only). • A combination preparation containing non-Alt a 1 soluble peptides (40.2, 41.2, 43.2, 44.2, 46.2, 47.2.1, 56.2, 57.2.1, 60.2, 62.2.1, 67.2, 71.3), called Alt a Other Sol. Each peptide was diluted from water stock to 2 mg/ml in sterile distilled water. Then 10 μl of each peptide required for the combined preparation was mixed and brought up to 1 ml in media, Then 100 μl of this peptide/media mix was added to 100 μl of media containing 350,000 PBMC in an ELISPOT anti-IL-4 coated cell culture plate well for a final concentration of each peptide at 10 μg/ml. Identically diluted media only was used for the no peptide control wells (media only). • A combination preparation containing non-Alt a 1 DMSO peptides (39.2, 42.2, 45.2, 48.2.1, 50.2, 51.2.1, 61.2.1, 66.3.1, 68.2.1, 70.2, 71.2, 72.2), called Alt a Other DMSO. Each peptide was diluted from DMSO stock to 2 mg/ml in sterile distilled water. Then 10 ul of each peptide required for the combined preparation was mixed and brought up to 1 ml in media, Then 100 μl of this peptide/media mix was added to 100 μl of media containing 350,000 PBMC in an ELISPOT anti-IL-4 coated cell culture plate well for a final concentration of each peptide at 10 μg/ml. Identically diluted media only was used for the no peptide control wells (media only).

Take `CC(C)C[C@H](NC(=O)[C@@H](NC(=O)CNC(=O)[C@H](Cc1c[nH]c2ccccc12)NC(=O)CNC(=O)[C@H](C)NC(=O)CN)C(C)C)C(=O)N[C@H](C(=O)N[C@@H](CO)C(=O)N[C@@H](Cc1c[nH]cn1)C(=O)N[C@@H](CCCNC(=N)N)C(=O)N[C@@H](CO)C(=O)NCC(=O)N[C@@H](CCC(=O)O)C(=O)N[C@H](C(=O)O)[C@@H](C)O)C(C)C` [Peptide 62.2.1, GAGWGVLVSHRSGET] (H-GAGWGVLVSHRSGET-OH): the solubility is over 2500 µg/mL.

Consider `CC(C)C[C@H](NC(=O)[C@H](CC(N)=O)NC(=O)[C@H](C)NC(=O)[C@H](CC(C)C)NC(=O)[C@H](CC(C)C)NC(=O)[C@H](CO)NC(=O)[C@H](Cc1ccccc1)NC(=O)[C@H](C)NC(=O)[C@@H](NC(=O)[C@H](CCCCN)NC(=O)[C@H](Cc1ccc(O)cc1)NC(=O)CNC(=O)[C@H](CC(C)C)NC(=O)[C@@H]1CCCN1C(=O)[C@@H](N)C(C)C)[C@@H](C)O)C(=O)O` [Peptide 66.3.1, VPLGYKTAFSLLANL] (H-VPLGYKTAFSLLANL-OH), for which the solubility is under 2500 µg/mL.

For `CC[C@H](C)[C@H](NC(=O)[C@H](CC(=O)O)NC(=O)[C@H](CCC(N)=O)NC(=O)[C@@H]1CCCN1C(=O)[C@@H](NC(=O)[C@H](Cc1ccccc1)NC(=O)[C@H](CC(=O)O)NC(=O)[C@H](CO)NC(=O)[C@@H](N)CC(C)C)C(C)C)C(=O)N[C@@H](CCC(N)=O)C(=O)N[C@@H](CCCCN)C(=O)N[C@@H](CC(C)C)C(=O)N[C@@H](Cc1c[nH]c2ccccc12)C(=O)N[C@@H](Cc1c[nH]cn1)C(=O)N[C@@H](CO)C(=O)O` [Peptide 67.2, LSDFVPQDIQKLWHS] (H-LSDFVPQDIQKLWHS-OH), the solubility is over 2500 µg/mL.

As for `CC(C)[C@H](NC(=O)[C@H](Cc1ccc(O)cc1)NC(=O)[C@H](CO)NC(=O)[C@H](CO)NC(=O)[C@H](C)NC(=O)[C@H](CC(=O)O)NC(=O)[C@H](CO)NC(=O)[C@H](C)NC(=O)[C@H](Cc1ccccc1)NC(=O)[C@H](Cc1ccc(O)cc1)NC(=O)[C@@H](NC(=O)[C@H](Cc1ccc(O)cc1)NC(=O)[C@H](C)NC(=O)CNC(=O)[C@@H](N)CCCCN)C(C)C)C(=O)O` [Peptide 68.2.1, KGAYVYFASDASSYV] (H-KGAYVYFASDASSYV-OH), the solubility was under 2500 µg/mL.

On to `CC[C@H](C)[C@H](NC(=O)[C@H](Cc1ccccc1)NC(=O)[C@H](Cc1ccc(O)cc1)NC(=O)CNC(=O)[C@H](CCCCN)NC(=O)[C@@H](N)CC(=O)O)C(=O)N[C@@H](CCC(=O)O)C(=O)N1CCC[C@H]1C(=O)N[C@H](C(=O)N[C@H](C(=O)N[C@@H](Cc1ccccc1)C(=O)N[C@@H](CO)C(=O)N[C@@H](CC(N)=O)C(=O)N[C@H](C(=O)N[C@H](C(=O)O)[C@@H](C)O)C(C)C)[C@@H](C)CC)[C@@H](C)O` [Peptide 70.2, DKGYFIEPTIFSNVT] (H-DKGYFIEPTIFSNVT-OH; N-terminus and C-terminus assumed), for which the solubility is under 2500 µg/mL.

Turning to `CC[C@H](C)[C@H](NC(=O)[C@H](CO)NC(=O)[C@@H](NC(=O)[C@@H](NC(=O)[C@H](CCCCN)NC(=O)[C@@H](NC(=O)[C@H](CCC(N)=O)NC(=O)[C@@H](NC(=O)[C@H](Cc1ccc(O)cc1)NC(=O)[C@H](CC(N)=O)NC(=O)[C@H](CC(=O)O)NC(=O)[C@@H](N)CC(C)C)[C@@H](C)CC)[C@@H](C)O)[C@@H](C)O)C(C)C)C(=O)N[C@@H](CCCNC(=N)N)C(=O)N[C@@H](CC(C)C)C(=O)NCC(=O)O` [Peptide 71.2, LDNYIQTKTVSIRLG] (H-LDNYIQTKTVSIRLG-OH), the solubility was under 2500 µg/mL.

On to `CC[C@H](C)[C@H](NC(=O)[C@H](CO)NC(=O)[C@@H](NC(=O)[C@@H](NC(=O)[C@H](CCCCN)NC(=O)[C@@H](NC(=O)[C@@H](N)CCC(N)=O)[C@@H](C)O)[C@@H](C)O)C(C)C)C(=O)N[C@@H](CCCNC(=N)N)C(=O)N[C@@H](CC(C)C)C(=O)NCC(=O)N[C@@H](CC(=O)O)C(=O)N[C@H](C(=O)N[C@@H](CC(C)C)C(=O)N[C@@H](Cc1ccccc1)C(=O)NCC(=O)O)C(C)C` [Peptide 71.3, QTKTVSIRLGDVLFG] (H-QTKTVSIRLGDVLFG-OH), for which the solubility was over 2500 µg/mL.

Take `CC(C)C[C@H](NC(=O)[C@H](CCC(N)=O)NC(=O)[C@H](Cc1c[nH]c2ccccc12)NC(=O)[C@H](Cc1c[nH]cn1)NC(=O)[C@H](CC(C)C)NC(=O)[C@@H](NC(=O)[C@H](CC(N)=O)NC(=O)[C@H](Cc1ccc(O)cc1)NC(=O)[C@H](CO)NC(=O)[C@H](CC(N)=O)NC(=O)[C@@H](NC(=O)[C@H](Cc1c[nH]c2ccccc12)NC(=O)[C@@H](NC(=O)[C@@H](NC(=O)CN)[C@@H](C)O)C(C)C)C(C)C)[C@@H](C)O)C(=O)O` [Peptide 72.2, GTVWVNSYNTLHWQL] (H-GTVWVNSYNTLHWQL-OH): the solubility was under 2500 µg/mL.

With `CC[C@H](C)[C@H](N)C(=O)N[C@@H](C)C(=O)N[C@@H](CO)C(=O)N[C@@H](CC(C)C)C(=O)N[C@@H](Cc1ccccc1)C(=O)N[C@@H](C)C(=O)N[C@@H](C)C(=O)N[C@@H](C)C(=O)NCC(=O)N[C@@H](CC(C)C)C(=O)N[C@@H](C)C(=O)N[C@@H](C)C(=O)N[C@@H](C)C(=O)N[C@@H](C)C(=O)N1CCC[C@H]1C(=O)O` [Peptide L6-2, IASLFAAAGLAAAAP], the solubility is under 2500 µg/mL.

For the compound `CC(C)C[C@H](NC(=O)[C@@H]1CCCN1C(=O)[C@H](C)NC(=O)[C@H](C)NC(=O)[C@H](C)NC(=O)[C@H](C)NC(=O)[C@H](CC(C)C)NC(=O)CNC(=O)[C@H](C)NC(=O)[C@H](C)NC(=O)[C@H](C)NC(=O)[C@H](Cc1ccccc1)NC(=O)[C@H](CC(C)C)NC(=O)[C@H](CO)NC(=O)[C@H](C)N)C(=O)O` [Peptide L6-3, ASLFAAAGLAAAAPL] (H-ASLFAAAGLAAAAPL-OH), the solubility is under 2500 µg/mL.

Take `CC[C@H](C)[C@H](NC(=O)[C@H](CC(N)=O)NC(=O)[C@H](Cc1ccccc1)NC(=O)CNC(=O)[C@H](CC(C)C)NC(=O)[C@H](CO)NC(=O)[C@H](CC(N)=O)NC(=O)[C@H](Cc1ccc(O)cc1)NC(=O)[C@H](Cc1ccc(O)cc1)NC(=O)[C@@H](NC(=O)CN)[C@@H](C)O)C(=O)N[C@@H](CCCCN)C(=O)N[C@@H](C)C(=O)N[C@H](C(=O)N[C@@H](CC(N)=O)C(=O)O)[C@@H](C)O` [Peptide L6-4, GTYYNSLGFNIKATN] (H-GTYYNSLGFNIKATN-OH): the solubility is under 2500 µg/mL.

In the case of `CC(C)C[C@H](N)C(=O)N1CCC[C@H]1C(=O)N[C@@H](CC(N)=O)C(=O)N[C@@H](Cc1ccc(O)cc1)C(=O)N[C@H](C(=O)N[C@@H](CCCNC(=N)N)C(=O)N[C@@H](C)C(=O)NCC(=O)NCC(=O)N[C@@H](CC(N)=O)C(=O)NCC(=O)N1CCC[C@H]1C(=O)N[C@@H](CCCCN)C(=O)N[C@@H](CC(=O)O)C(=O)N[C@@H](Cc1ccccc1)C(=O)O)C(C)C` [Peptide L6-5.01, LPNYVRAGGNGPKDF] (H-LPNYVRAGGNGPKDF-OH), the solubility is over 2500 µg/mL.

Turning to `CC(C)C[C@H](NC(=O)[C@H](CCCCN)NC(=O)[C@H](CC(=O)O)NC(=O)[C@H](C)NC(=O)[C@H](CCC(N)=O)NC(=O)[C@H](C)NC(=O)[C@H](CO)NC(=O)[C@@H](NC(=O)[C@@H](NC(=O)[C@H](Cc1ccccc1)NC(=O)[C@H](CC(=O)O)NC(=O)[C@H](CC(C)C)NC(=O)[C@@H](NC(=O)CNC(=O)CN)[C@@H](C)O)[C@@H](C)O)C(C)C)C(=O)O` [Peptide L10-1.01, GGTLDFTVSAQADKL] (H-GGTLDFTVSAQADKL-OH), the solubility is over 2500 µg/mL.
